Reference: patent US20120277161A1, “INHIBITION OF MULTIPLE CELL ACTIVATION PATHWAYS” (INTER-K PTY LIMITED, priority 2009, published 2012)

Legend:
[1] = target: PI3K gamma (Homo sapiens, UniProt P48736); experiment: PI3K HTRF activity assay; format: biochemical; conditions: final concentration 50 μM
Experimental: In a final reaction volume of 20 μL, the test PI3K is incubated in assay buffer containing 10 μM phosphatidylinositol-4,5-bisphosphate and MgATP. The reaction is initiated by the addition of the MgATP mix. After incubation for 30 minutes at room temperature, the reaction is stopped by the addition of 5 μL of stop solution containing EDTA and biotinylated phosphatidylinositol-3,4,5-trisphosphate. Finally, 5 μL of detection buffer is added (containing europium-labelled anti-GST monoclonal antibody, GST-tagged GRP1 PH domain and streptavidin-allophycocyanin). The test plate is then read in time-resolved fluorescence mode and the homogenous time-resolved fluorescence (HTRF) signal is determined according to the formula HTRF=10000×(Em665 nm/Em620 nm).

[2] = target: c-RAF (h) (Homo sapiens, UniProt P04049); experiment: c-RAF kinase activity assay; format: biochemical
Experimental: (§1) In a final reaction volume of 25 μL, c-RAF (h) (5-10 mU) is incubated with 25 mM Tris pH 7.5, 0.02 mM EGTA, 0.66 mg/mL myelin basic protein, 10 mM MgAcetate and [γ-33P-ATP] (specific activity approx. 500 cpm/pmol, concentration as required). The reaction is initiated by the addition of the MgATP mix. After incubation for 40 minutes at room temperature, the reaction is stopped by the addition of 5 μL of a 3% phosphoric acid solution. 10 μL of the reaction is then spotted onto a P30 filtermat and washed three times for 5 minutes in 75 mM phosphoric acid and once in methanol prior to drying and scintillation counting.

[3] = target: PKC alpha (Homo sapiens, UniProt P17252); experiment: PKC kinase activity assay; format: biochemical
Experimental: as §1, with “[…] PKC kinase” for “25 μL, c-RAF”, “with 20” for “with 25”, “mM HEPES” for “mM Tris”, “pH 7.4, 0.03% Triton X-100, […], 0.1” for “pH 7.5, 0.02 mM EGTA, 0.66”, “mg/mL phosphatidylserine, 10 μg/mL diacylglycerol, 0.1 mg/mL histone H1 or 50 μM of the peptide ERMRPRKRQGSVRRRV (SEQ ID No. 20),” for “mg/mL myelin basic protein,”

[4] = target: PKC beta I (Homo sapiens, UniProt P05771); experiment: PKC kinase activity assay; format: biochemical
Experimental: as §1, with “[…] PKC kinase” for “25 μL, c-RAF”, “with 20” for “with 25”, “mM HEPES” for “mM Tris”, “pH 7.4, 0.03% Triton X-100, […], 0.1” for “pH 7.5, 0.02 mM EGTA, 0.66”, “mg/mL phosphatidylserine, 10 μg/mL diacylglycerol, 0.1 mg/mL histone H1 or 50 μM of the peptide ERMRPRKRQGSVRRRV (SEQ ID No. 20),” for “mg/mL myelin basic protein,”

[5] = target: PKC beta II (Homo sapiens, UniProt P05771); experiment: PKC kinase activity assay; format: biochemical
Experimental: as §1, with “[…] PKC kinase” for “25 μL, c-RAF”, “with 20” for “with 25”, “mM HEPES” for “mM Tris”, “pH 7.4, 0.03% Triton X-100, […], 0.1” for “pH 7.5, 0.02 mM EGTA, 0.66”, “mg/mL phosphatidylserine, 10 μg/mL diacylglycerol, 0.1 mg/mL histone H1 or 50 μM of the peptide ERMRPRKRQGSVRRRV (SEQ ID No. 20),” for “mg/mL myelin basic protein,”

[6] = target: c-SRC (h) (Homo sapiens, UniProt P12931); experiment: c-Src kinase activity assay (cell-free, 33P-ATP); format: biochemical
Experimental: as §1, with “μL, c-SRC” for “μL, c-RAF”, “with 8” for “with 25”, “mM MOPS” for “mM Tris”, “pH 7.0, 0.2” for “pH 7.5, 0.02”, “mM EDTA, 250 μM KVEKIGEGTYGVVYK (SEQ ID No. 19) (Cdc2 peptide),” for “mM EGTA, 0.66 mg/mL myelin basic protein,”

[7] = target: PKB alpha (Homo sapiens, UniProt P31749); experiment: PKB kinase activity assay; format: biochemical; conditions: 20 μM, relative to control
Experimental: In a final reaction volume of 25 μL, PKB(h) (5-10 mU) is incubated with 8 mM MOPS pH 7.0, 0.2 mM EDTA, 30 μM GRPRTSSFAEGKK (SEQ ID No. 26), 10 mM MgAcetate and [γ-33P-ATP] (specific activity approx. 500 cpm/pmol, concentration as required). The reaction is initiated by the addition of the MgATP mix. After incubation for 40 minutes at room temperature, the reaction is stopped by the addition of 5 μL of a 3% phosphoric acid solution. 10 μL of the reaction mixture is then spotted onto a P30 filtermat and washed three times for 5 minutes in 75 mM phosphoric acid and once in methanol prior to drying and scintillation counting.

[8] = target: mTOR (Homo sapiens, UniProt P42345); experiment: mTOR activity; format: biochemical; conditions: 20 μM, data not shown
[9] = tested on: JNK; experiment: JNK activity; format: biochemical; conditions: 20 μM, data not shown
[10] = target: FAK (Homo sapiens, UniProt Q05397); experiment: FAK activity; format: biochemical; conditions: 20 μM, data not shown
[11] = target: kinases listed Table 2; experiment: Kinase dose response study (kinases listed Table 2); format: biochemical; conditions: range over all kinases of Table 2; read-out: IC50 percentage inhibition of activity for all the kinases
Experimental: In a dose response study, the inhibition of the activity of the kinases listed Table 2 at increasing concentrations of dendrimer Dend 10-10(4)DP (see Example 2.3) was assessed employing the treatment protocols described in Examples 1 to 3. As shown in the table, inhibition of kinase activity was obtained by the dendrimer at all the concentrations tested. The IC50 percentage inhibition of activity for all the kinases was in the range of from 0.25-2.0 μM. The results shown in Table 2 are percentage inhibition relative to controls. Comparative dose results for 1 μM dendrimer Dend 10-10(4) are also shown.

[12] = tested on: MKN45 gastric carcinoma cells; experiment: MTT growth/proliferation, MKN45 cells; format: cell-based; conditions: 48 hours
Experimental: (§2) In this study, the cells were incubated in the presence of the dendrimer for 48 hours. Cell lines were maintained at 37° C. in a humid atmosphere containing 5% CO2. Cells were passaged at pre-confluent densities using a solution containing 0.05% trypsin and 0.5 mM EDTA (Invitrogen).

[13] = tested on: MCF-7 breast cancer cells; experiment: MTT growth/proliferation, MCF-7 cells; format: cell-based; conditions: 48 hours
Experimental: as §2

[14] = tested on: DU145 prostate cancer cells; experiment: MTT growth/proliferation, DU145 cells; format: cell-based; conditions: 48 hours
Experimental: as §2

Sequence of PKC beta I (P05771 whole entry): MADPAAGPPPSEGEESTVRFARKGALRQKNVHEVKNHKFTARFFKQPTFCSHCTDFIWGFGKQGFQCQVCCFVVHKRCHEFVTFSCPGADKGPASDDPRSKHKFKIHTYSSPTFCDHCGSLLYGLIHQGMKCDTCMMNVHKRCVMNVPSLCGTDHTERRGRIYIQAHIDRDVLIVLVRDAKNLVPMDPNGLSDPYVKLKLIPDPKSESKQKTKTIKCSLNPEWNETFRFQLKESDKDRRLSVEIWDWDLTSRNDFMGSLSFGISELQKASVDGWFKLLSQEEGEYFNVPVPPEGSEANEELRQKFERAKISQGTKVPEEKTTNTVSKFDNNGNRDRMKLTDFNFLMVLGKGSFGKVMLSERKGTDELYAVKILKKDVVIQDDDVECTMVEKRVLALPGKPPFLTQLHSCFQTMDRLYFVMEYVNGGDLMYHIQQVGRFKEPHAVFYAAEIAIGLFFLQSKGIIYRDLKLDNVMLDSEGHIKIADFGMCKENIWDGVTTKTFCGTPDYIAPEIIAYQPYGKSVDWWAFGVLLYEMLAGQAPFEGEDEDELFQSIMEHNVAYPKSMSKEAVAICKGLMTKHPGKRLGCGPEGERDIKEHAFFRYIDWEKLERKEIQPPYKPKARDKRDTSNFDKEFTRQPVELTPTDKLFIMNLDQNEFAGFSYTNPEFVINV
Sequence of PKC beta II (P05771 1-673 isoform P05771-2): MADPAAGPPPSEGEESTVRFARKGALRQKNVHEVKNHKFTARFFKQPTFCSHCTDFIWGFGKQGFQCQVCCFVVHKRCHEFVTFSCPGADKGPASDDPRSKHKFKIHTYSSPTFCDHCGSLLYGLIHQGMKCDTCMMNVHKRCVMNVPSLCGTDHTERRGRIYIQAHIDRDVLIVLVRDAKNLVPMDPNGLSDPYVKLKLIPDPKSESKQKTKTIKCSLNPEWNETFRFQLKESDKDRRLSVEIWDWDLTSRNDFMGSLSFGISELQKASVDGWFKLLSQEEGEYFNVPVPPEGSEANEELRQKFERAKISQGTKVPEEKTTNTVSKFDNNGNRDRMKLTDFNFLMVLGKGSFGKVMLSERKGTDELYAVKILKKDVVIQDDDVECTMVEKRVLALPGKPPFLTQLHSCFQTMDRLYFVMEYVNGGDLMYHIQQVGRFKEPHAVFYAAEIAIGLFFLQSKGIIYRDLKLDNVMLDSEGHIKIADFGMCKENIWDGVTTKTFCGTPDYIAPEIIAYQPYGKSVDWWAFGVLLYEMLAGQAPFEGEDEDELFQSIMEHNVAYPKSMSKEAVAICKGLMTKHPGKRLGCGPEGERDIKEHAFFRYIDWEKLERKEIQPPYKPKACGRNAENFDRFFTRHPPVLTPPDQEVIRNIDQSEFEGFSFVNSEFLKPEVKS
Sequence of PI3K gamma (P48736 whole entry, species assumed, the tested form may be a part): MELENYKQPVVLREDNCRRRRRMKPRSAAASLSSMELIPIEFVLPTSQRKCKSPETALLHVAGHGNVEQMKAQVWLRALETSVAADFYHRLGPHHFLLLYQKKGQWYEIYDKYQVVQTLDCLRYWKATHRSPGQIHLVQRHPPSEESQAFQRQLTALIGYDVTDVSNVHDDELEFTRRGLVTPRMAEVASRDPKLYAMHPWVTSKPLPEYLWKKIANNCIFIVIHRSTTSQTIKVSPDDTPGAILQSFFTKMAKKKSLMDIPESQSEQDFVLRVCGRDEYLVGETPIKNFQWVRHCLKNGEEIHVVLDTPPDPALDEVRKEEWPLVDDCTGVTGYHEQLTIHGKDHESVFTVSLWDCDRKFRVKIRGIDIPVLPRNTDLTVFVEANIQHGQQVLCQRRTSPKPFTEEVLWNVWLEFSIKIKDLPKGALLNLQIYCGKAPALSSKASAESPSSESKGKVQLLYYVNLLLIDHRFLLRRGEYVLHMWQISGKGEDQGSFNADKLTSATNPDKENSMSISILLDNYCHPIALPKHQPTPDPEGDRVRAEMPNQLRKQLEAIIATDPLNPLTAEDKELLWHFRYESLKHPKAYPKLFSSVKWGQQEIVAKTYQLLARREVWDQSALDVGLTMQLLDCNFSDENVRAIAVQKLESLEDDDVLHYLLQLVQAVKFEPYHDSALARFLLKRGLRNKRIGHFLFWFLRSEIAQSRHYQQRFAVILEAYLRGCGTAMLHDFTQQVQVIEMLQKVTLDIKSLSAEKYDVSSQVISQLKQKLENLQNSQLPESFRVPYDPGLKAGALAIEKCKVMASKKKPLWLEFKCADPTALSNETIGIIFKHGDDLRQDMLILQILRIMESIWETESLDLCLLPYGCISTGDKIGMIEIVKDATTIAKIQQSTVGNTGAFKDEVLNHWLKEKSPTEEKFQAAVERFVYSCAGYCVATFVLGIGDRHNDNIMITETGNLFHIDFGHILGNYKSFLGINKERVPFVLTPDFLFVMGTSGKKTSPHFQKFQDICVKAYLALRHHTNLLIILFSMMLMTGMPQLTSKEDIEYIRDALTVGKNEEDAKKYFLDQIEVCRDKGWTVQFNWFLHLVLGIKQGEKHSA
Sequence of FAK (Q05397 whole entry, species assumed): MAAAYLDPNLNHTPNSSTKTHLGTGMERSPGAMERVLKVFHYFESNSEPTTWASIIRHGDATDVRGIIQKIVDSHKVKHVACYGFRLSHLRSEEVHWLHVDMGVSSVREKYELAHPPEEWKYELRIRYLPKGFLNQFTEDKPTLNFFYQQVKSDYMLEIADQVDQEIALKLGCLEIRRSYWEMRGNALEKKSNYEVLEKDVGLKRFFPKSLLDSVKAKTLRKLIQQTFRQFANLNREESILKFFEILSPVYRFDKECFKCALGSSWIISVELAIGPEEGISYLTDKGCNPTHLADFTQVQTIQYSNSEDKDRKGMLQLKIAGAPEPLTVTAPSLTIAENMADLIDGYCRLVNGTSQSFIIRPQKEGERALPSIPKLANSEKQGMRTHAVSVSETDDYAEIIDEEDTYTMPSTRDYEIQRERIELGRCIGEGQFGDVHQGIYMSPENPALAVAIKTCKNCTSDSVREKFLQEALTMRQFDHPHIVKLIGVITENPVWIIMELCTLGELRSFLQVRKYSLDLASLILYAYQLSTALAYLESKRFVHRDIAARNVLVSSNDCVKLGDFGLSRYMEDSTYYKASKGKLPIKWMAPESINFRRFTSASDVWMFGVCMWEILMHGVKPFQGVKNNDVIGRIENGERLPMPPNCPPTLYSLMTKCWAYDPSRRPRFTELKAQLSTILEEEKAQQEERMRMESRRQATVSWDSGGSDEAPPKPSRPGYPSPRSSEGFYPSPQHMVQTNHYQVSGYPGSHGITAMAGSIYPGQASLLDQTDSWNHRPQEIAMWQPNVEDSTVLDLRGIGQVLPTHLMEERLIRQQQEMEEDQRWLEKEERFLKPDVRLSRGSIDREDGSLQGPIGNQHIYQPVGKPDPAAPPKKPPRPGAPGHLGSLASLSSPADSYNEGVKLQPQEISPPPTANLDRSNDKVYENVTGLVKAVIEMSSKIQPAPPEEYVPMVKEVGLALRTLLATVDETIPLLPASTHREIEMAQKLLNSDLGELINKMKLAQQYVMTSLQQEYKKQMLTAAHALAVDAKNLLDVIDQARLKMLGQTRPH
Sequence of PKB alpha (P31749 whole entry): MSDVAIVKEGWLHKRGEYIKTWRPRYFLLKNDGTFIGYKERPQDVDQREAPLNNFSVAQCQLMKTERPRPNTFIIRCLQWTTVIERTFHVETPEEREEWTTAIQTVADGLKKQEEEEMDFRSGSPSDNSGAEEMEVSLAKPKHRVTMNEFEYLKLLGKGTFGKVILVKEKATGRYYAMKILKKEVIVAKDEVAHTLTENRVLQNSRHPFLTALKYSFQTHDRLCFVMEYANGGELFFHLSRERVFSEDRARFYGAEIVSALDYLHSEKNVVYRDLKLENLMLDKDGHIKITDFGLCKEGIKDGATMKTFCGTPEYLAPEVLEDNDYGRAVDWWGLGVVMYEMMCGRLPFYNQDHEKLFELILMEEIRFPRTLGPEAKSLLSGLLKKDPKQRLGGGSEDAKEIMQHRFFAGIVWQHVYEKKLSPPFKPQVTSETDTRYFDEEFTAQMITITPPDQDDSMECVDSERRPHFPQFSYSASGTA

## CC(C)C[C@H](NC(=O)[C@@H]1CCCN1C(=O)[C@H](CC(N)=O)NC(=O)[C@H](CCCCN)NC(=O)[C@H](C)NC(=O)[C@H](CCCCN)NC(=O)[C@H](CO)NC(=O)[C@@H](N)CCCNC(=N)N)C(=O)N[C@@H](Cc1ccc(O)cc1)C(=O)N[C@@H](CCCNC(=N)N)C(=O)NCCCC[C@H](NC(=O)[C@H](CCCCNC(=O)[C@H](CCCCNC(=O)[C@H](CCCNC(=N)N)NC(=O)[C@H](Cc1ccc(O)cc1)NC(=O)[C@H](CC(C)C)NC(=O)[C@@H]1CCCN1C(=O)[C@H](CC(N)=O)NC(=O)[C@H](CCCCN)NC(=O)[C@H](C)NC(=O)[C@H](CCCCN)NC(=O)[C@H](CO)NC(=O)[C@@H](N)CCCNC(=N)N)NC(=O)[C@H](CCCNC(=N)N)NC(=O)[C@H](Cc1ccc(O)cc1)NC(=O)[C@H](CC(C)C)NC(=O)[C@@H]1CCCN1C(=O)[C@H](CC(N)=O)NC(=O)[C@H](CCCCN)NC(=O)[C@H](C)NC(=O)[C@H](CCCCN)NC(=O)[C@H](CO)NC(=O)[C@@H](N)CCCNC(=N)N)NC(=O)[C@H](CCCCNC(=O)[C@H](CCCNC(=N)N)NC(=O)[C@H](Cc1ccc(O)cc1)NC(=O)[C@H](CC(C)C)NC(=O)[C@@H]1CCCN1C(=O)[C@H](CC(N)=O)NC(=O)[C@H](CCCCN)NC(=O)[C@H](C)NC(=O)[C@H](CCCCN)NC(=O)[C@H](CO)NC(=O)[C@@H](N)CCCNC(=N)N)NC(=O)[C@H](CCCNC(=N)N)NC(=O)[C@H](Cc1ccc(O)cc1)NC(=O)[C@H](CC(C)C)NC(=O)[C@@H]1CCCN1C(=O)[C@H](CC(N)=O)NC(=O)[C@H](CCCCN)NC(=O)[C@H](C)NC(=O)[C@H](CCCCN)NC(=O)[C@H](CO)NC(=O)[C@@H](N)CCCNC(=N)N)C(=O)NCCCC[C@H](NC(=O)[C@H](CCCCNC(=O)[C@H](CCCNC(=N)N)NC(=O)[C@H](Cc1ccc(O)cc1)NC(=O)[C@H](CC(C)C)NC(=O)[C@@H]1CCCN1C(=O)[C@H](CC(N)=O)NC(=O)[C@H](CCCCN)NC(=O)[C@H](C)NC(=O)[C@H](CCCCN)NC(=O)[C@H](CO)NC(=O)[C@@H](N)CCCNC(=N)N)NC(=O)[C@H](CCCCNC(=O)[C@H](CCCCNC(=O)[C@H](CCCNC(=N)N)NC(=O)[C@H](Cc1ccc(O)cc1)NC(=O)[C@H](CC(C)C)NC(=O)[C@@H]1CCCN1C(=O)[C@H](CC(N)=O)NC(=O)[C@H](CCCCN)NC(=O)[C@H](C)NC(=O)[C@H](CCCCN)NC(=O)[C@H](CO)NC(=O)[C@@H](N)CCCNC(=N)N)NC(=O)[C@H](CCCNC(=N)N)NC(=O)[C@H](Cc1ccc(O)cc1)NC(=O)[C@H](CC(C)C)NC(=O)[C@@H]1CCCN1C(=O)[C@H](CC(N)=O)NC(=O)[C@H](CCCCN)NC(=O)[C@H](C)NC(=O)[C@H](CCCCN)NC(=O)[C@H](CO)NC(=O)[C@@H](N)CCCNC(=N)N)NC(=O)[C@H](CCCCNC(=O)[C@H](CCCNC(=N)N)NC(=O)[C@H](Cc1ccc(O)cc1)NC(=O)[C@H](CC(C)C)NC(=O)[C@@H]1CCCN1C(=O)[C@H](CC(N)=O)NC(=O)[C@H](CCCCN)NC(=O)[C@H](C)NC(=O)[C@H](CCCCN)NC(=O)[C@H](CO)NC(=O)[C@@H](N)CCCNC(=N)N)NC(=O)[C@H](CCCNC(=N)N)NC(=O)[C@H](Cc1ccc(O)cc1)NC(=O)[C@H](CC(C)C)NC(=O)[C@@H]1CCCN1C(=O)[C@H](CC(N)=O)NC(=O)[C@H](CCCCN)NC(=O)[C@H](C)NC(=O)[C@H](CCCCN)NC(=O)[C@H](CO)NC(=O)[C@@H](N)CCCNC(=N)N)C(=O)NCCC(N)=O [Dend 10-10(4)]
[1]
  PIK3 gamma % activity relative to control: 11%
[2]; dendrimer conc. 1 μM, read-out: Percentage (%) kinase inhibition c-RAF
  inhibition at 1 µM: 71%
[3]; dendrimer conc. 1 μM, read-out: Percentage (%) kinase inhibition PKC alpha
  inhibition at 1 µM: 78%
[4]; dendrimer conc. 1 μM, read-out: Percentage (%) kinase inhibition PKC beta I
  inhibition at 1 µM: 67%
[5]; dendrimer conc. 1 μM, read-out: Percentage (%) kinase inhibition PKC beta II
  inhibition at 1 µM: 75%

## Dend 10-10(4) whose RSKAKNPLYR peptides are entirely D-amino acids and pegylated with two ethylene glycol units [Dend 10-10(4)DP]
[6]
  inhibition of c-Src activity compared to peptide RSKAKNPLYR alone: no increase in the inhibition of c-Src activity
[2]; 20 μM, relative to control
  % Kinase inhibition c-RAF: 93%
[2]; dendrimer conc. 1 μM
  Percentage (%) kinase inhibition c-RAF: 79%
[2]; dendrimer conc. 2 μM
  Percentage (%) kinase inhibition c-RAF: 81%
[2]; dendrimer conc. 250 nm
  Percentage (%) kinase inhibition c-RAF: 64%
[2]; dendrimer conc. 500 nm
  Percentage (%) kinase inhibition c-RAF: 74%
[7]
  % Kinase inhibition PKB alpha: 29%
[3]; 20 μM, relative to control
  % Kinase inhibition PKC alpha: 98%
[3]; dendrimer conc. 1 μM
  Percentage (%) kinase inhibition PKC alpha: 83%
[3]; dendrimer conc. 2 μM
  Percentage (%) kinase inhibition PKC alpha: 98%
[3]; dendrimer conc. 250 nm
  Percentage (%) kinase inhibition PKC alpha: 23%
[3]; dendrimer conc. 500 nm
  Percentage (%) kinase inhibition PKC alpha: 45%
[4]; 20 μM, relative to control
  % Kinase inhibition PKC beta I: 98%
[4]; dendrimer conc. 1 μM
  Percentage (%) kinase inhibition PKC beta I: 80%
[4]; dendrimer conc. 2 μM
  Percentage (%) kinase inhibition PKC beta I: 96%
[4]; dendrimer conc. 250 nm
  Percentage (%) kinase inhibition PKC beta I: 19%
[4]; dendrimer conc. 500 nm
  Percentage (%) kinase inhibition PKC beta I: 35%
[5]; 20 μM, relative to control
  % Kinase inhibition PKC beta II: 83%
[5]; dendrimer conc. 1 μM
  Percentage (%) kinase inhibition PKC beta II: 82%
[5]; dendrimer conc. 2 μM
  Percentage (%) kinase inhibition PKC beta II: 95%
[5]; dendrimer conc. 250 nm
  Percentage (%) kinase inhibition PKC beta II: 22%
[5]; dendrimer conc. 500 nm
  Percentage (%) kinase inhibition PKC beta II: 44%
[8]
  effect on activity of mTOR: without any effect
[9]
  effect on activity of JNK: without any effect
[10]
  effect on activity of FAK: without any effect
[11]
  IC50: 250 to 2000 nM
[12]
  inhibition of growth/proliferation of MKN45 cells: inhibited growth/proliferation
[13]
  inhibition of growth/proliferation of MCF-7 cells: inhibited growth/proliferation
[14]
  inhibition of growth/proliferation of DU145 cells: inhibited growth/proliferation
